Source: ChEMBL document CHEMBL1201862, “PubChem BioAssay data set” (2004)
Activity calls are given as the source filed them.

Columns and labels:
[1] = molecular target: Dual specificity protein phosphatase 3 (Homo sapiens, UniProt P51452); assay: SAR VHR1 Fluorescent Assay for In Vitro dose response studies Set 3. [Related pubchem assays (depositor defined):AID1654, AID1661, AID1878]; type: functional
[2] = molecular target: Mu-type opioid receptor (Homo sapiens, UniProt P35372); assay: (§1) Counterscreen for agonists of heterodimerization of the mu 1 (OPRM1) and delta 1 (OPRD1) opioid receptors: Luminescence-based cell-based high throughput dose response assay to identify agonists of OPRM1 homodimerization.; type: functional
[3] = molecular target: Delta-type opioid receptor (Homo sapiens, UniProt P41143); assay: as §1, with “of OPRD1” for “of OPRM1”, “homodimerization. [Related pubchem assays (depositor defined):AID504326, AID504355, AID504692, AID504904, AID504905]” for “homodimerization.”; type: functional
[4] = molecular target: T1, Short transient receptor potential channel 4 (Mus musculus, UniProt Q9QUQ5); assay: calcium entry via TRPC4 opening agents – cell-based, HEK293 TRPC4/mu-opioid, Fluo-4 calcium, dose response (AID 434937); type: functional
T1 sequence (Q9QUQ5 whole entry): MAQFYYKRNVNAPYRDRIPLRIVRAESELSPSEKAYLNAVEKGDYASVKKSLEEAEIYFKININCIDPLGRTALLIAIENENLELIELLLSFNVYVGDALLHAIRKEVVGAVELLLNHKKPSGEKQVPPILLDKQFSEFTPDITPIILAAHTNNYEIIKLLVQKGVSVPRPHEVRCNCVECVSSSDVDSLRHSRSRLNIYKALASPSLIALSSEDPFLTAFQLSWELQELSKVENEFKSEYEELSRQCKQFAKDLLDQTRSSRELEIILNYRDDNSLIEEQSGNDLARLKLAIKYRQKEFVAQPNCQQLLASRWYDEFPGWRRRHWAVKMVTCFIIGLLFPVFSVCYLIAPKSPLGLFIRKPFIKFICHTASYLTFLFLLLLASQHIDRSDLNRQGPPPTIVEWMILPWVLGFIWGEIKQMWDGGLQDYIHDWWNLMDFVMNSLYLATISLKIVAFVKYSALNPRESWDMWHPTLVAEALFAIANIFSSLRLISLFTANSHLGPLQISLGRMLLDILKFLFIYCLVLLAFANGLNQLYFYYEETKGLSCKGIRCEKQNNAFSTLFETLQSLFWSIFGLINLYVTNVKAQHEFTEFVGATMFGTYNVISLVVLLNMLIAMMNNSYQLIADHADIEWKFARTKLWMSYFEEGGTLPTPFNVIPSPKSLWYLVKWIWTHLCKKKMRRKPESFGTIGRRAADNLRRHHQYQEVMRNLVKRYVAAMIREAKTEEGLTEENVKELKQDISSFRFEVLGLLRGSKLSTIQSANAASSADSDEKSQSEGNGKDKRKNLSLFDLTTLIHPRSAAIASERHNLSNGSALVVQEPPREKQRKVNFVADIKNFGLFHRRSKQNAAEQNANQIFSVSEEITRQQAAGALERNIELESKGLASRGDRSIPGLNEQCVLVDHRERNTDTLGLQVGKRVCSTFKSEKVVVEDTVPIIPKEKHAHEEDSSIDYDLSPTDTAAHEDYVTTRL

[5] = molecular target: Opioid receptors; mu & delta (Homo sapiens, UniProt P41143+P35372); assay: OPRM1-OPRD1 heterodimer agonist potency – cell-based, luminescence, dose response (AID 588407); type: functional
[6] = molecular target: 5-hydroxytryptamine receptor 5A (Homo sapiens, UniProt P47898); assay: Counterscreen for agonists of OPRM1-OPRD1 heterodimerization: luminescence-based cell-based high throughput dose response assay to identify agonists of 5-hydroxytryptamine (serotonin) 5A receptor (HTR5A). [Related pubchem assays (depositor defined):AID504326, AID504355, AID504692, AID504904, AID504905]; type: functional
[7] = NIH-3T3 fibroblast cytotoxicity, dose response, cytotoxicity control, cell-based, fluorescence, Alamar Blue, secondary assay (AID 2327); type: functional;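 also: NIH-3T3 mouse fibroblasts cultured with fluconazole at 8 µg/mL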
[8] = molecular target: ATP-dependent molecular chaperone HSP82 (Candida albicans (strain WO-1) (Yeast), UniProt C4YTQ8); assay: steroid-induced GRE reporter decrease in yeast – S. cerevisiae, luminescence, Hsp90 inhibitor project, dose response (AID 2400); type: functional, cell-based;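 also: beta-galactosidase luminescence from glucocorticoid response element reporter as proxy for Hsp90 function; inhibitor potency where signal loss means Hsp90 inhibition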
[9] = cells; type: functional, cell-based
[10] = fluconazole-exposed Candida albicans growth modulators – fluorescence, retest, confirmation (AID 2467); type: functional, cell-based
[11] = system: HEK293; assay: EBV LMP1 TES2 canonical NF-kB signalling blockers – cell-based, HEK293, luciferase, cherry-pick, dose response (AID 588343); type: functional; details: Homo sapiens
[12] = Counterscreen for activators of the function of SWI/SNF related, matrix associated, actin dependent regulator of chromatin, subfamily a, member 2 (SMARCA2, BRM): Luminescence-based cell-based high throughput dose response assay to identify non-selective compounds using the VP16 reporter assay.; type: functional
[13] = molecular target: T2, Serine/threonine-protein phosphatase (Candida dubliniensis (strain CD36 / CBS 7987 / NCPF 3949 / NRRLY-17841) (Yeast), UniProt B9W6M3); assay: blockers of CaCl2-induced CDRE-lacZ signaling – S. cerevisiae, luminescence, secondary, dose response (AID 2388); type: functional, cell-based;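 also: yeast reporter cells carrying a calcineurin-responsive lacZ construct stimulated with calcium chloride; luminescent beta-galactosidase reporter signal in whole cells rather than isolated phosphatase activity; potency for inhibition where a drop in reporter signal means calcineurin blockade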
T2 sequence (B9W6M3 whole entry): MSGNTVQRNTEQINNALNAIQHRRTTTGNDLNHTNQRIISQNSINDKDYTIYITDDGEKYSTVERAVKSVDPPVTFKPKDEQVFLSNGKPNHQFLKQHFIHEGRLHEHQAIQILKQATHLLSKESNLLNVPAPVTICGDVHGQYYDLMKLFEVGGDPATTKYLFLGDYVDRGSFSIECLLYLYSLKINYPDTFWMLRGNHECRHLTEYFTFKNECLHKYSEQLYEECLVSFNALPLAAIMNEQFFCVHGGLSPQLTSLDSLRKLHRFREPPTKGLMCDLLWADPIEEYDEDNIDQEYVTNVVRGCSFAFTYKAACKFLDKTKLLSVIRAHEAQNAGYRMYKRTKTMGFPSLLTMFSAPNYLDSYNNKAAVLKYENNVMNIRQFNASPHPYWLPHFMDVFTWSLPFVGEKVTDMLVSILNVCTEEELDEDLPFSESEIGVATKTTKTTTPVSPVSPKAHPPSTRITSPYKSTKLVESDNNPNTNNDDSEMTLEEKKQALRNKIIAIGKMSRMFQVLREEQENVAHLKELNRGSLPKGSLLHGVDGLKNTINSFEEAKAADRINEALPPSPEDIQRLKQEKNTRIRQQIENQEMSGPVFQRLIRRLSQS

[14] = HEK-293T viability loss after treatment – luminescence, T-cell screen hits, cytotoxicity control for TCR NF-kB inhibitor project, dose response (AID 489026); type: functional, cell-based;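 also: cells exposed to compound about 14 hours before the viability readout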
[15] = cells; type: functional, cell-based; remark: listed apart in the source
[16] = molecular target: SWI/SNF-related matrix-associated actin-dependent regulator of chromatin subfamily A member 2 (Homo sapiens, UniProt P51531); assay: Luminescence-based cell-based high throughput dose response assay to identify activators of the function of SWI/SNF related, matrix associated, actin dependent regulator of chromatin, subfamily a, member 2 (SMARCA2, BRM).; type: functional
[17] = molecular target: Dual specificity tyrosine-phosphorylation-regulated kinase 1A (Rattus norvegicus, UniProt Q63470); type: biochemical, Homo sapiens
[18] = molecular target: Photoreceptor-specific nuclear receptor (Homo sapiens, UniProt Q9Y5X4); type: functional, cell-based;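 also: CHO-S cells with Gal4-NCOR and VP16-NR2E3 two-hybrid luciferase reporter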
[19] = molecular target: Cytochrome P450 2C9 (Homo sapiens, UniProt P11712)
[20] = molecular target: T3, Cytochrome P450 1A2 (Homo sapiens, UniProt P05177);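 also: PubChem cytochrome P450 panel assay, CYP1A2 panel member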
T3 sequence (P05177 whole entry): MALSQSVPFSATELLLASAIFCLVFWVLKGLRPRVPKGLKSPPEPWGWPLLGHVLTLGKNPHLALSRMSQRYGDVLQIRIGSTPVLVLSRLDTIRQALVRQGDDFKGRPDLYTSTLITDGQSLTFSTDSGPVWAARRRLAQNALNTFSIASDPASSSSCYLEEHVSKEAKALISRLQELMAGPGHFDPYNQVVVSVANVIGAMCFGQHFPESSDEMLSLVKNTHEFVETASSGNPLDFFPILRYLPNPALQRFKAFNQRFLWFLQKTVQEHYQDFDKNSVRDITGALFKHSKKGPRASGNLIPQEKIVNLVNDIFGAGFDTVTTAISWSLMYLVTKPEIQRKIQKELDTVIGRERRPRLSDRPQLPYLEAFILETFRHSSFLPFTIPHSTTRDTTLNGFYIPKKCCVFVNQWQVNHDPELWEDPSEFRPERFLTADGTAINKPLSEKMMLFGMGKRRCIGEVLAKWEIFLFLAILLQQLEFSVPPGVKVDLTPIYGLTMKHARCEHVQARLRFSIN

[21] = molecular target: Cytochrome P450 2C19 (Homo sapiens, UniProt P33261); assay: Cytochrome panel assay with activity outcomes. Panel member name: p450-cyp2c19 Compounds with AC50 equal or less than 10 uM are considered active; type: functional; details: read-out: AC50
[22] = molecular target: T4, Replicative DNA helicase DnaB (Mycobacterium tuberculosis, UniProt P9WMR3); assay: DnaB intein splicing inhibitors, dose response, biochemical, cell-free fluorescence (AID 449749); type: functional
T4 sequence (P9WMR3 whole entry): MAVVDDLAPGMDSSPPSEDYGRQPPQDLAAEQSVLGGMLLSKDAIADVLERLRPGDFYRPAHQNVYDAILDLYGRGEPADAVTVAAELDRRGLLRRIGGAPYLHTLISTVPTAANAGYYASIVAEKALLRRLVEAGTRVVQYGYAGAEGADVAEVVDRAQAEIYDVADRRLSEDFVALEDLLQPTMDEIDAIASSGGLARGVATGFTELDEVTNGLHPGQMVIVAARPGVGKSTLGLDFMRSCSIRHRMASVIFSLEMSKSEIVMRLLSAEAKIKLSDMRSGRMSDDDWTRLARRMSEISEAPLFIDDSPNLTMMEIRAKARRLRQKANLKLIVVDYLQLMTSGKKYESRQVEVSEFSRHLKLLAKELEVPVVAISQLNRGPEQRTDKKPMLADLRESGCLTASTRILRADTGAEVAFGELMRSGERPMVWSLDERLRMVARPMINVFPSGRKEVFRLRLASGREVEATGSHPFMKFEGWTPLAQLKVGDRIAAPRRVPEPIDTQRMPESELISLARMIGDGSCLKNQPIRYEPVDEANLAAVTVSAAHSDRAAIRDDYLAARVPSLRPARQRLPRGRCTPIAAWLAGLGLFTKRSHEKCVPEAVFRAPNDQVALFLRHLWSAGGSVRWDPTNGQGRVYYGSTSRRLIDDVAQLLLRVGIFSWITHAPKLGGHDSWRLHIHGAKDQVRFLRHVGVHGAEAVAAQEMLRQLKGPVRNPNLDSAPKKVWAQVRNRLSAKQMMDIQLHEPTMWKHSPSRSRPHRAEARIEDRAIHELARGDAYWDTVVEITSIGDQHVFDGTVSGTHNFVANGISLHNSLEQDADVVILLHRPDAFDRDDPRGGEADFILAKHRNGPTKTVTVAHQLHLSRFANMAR

[23] = molecular target: T5, Protein RecA (Mycobacterium tuberculosis, UniProt P9WHJ3); assay: Fluorescence Cell-Free Homogeneous Dose Retest to Identify Inhibitors of RecA-Intein Splicing Activity. [Related pubchem assays (depositor defined):AID2097, AID2223, AID489010, AID492950]; type: functional
T5 sequence (P9WHJ3 whole entry): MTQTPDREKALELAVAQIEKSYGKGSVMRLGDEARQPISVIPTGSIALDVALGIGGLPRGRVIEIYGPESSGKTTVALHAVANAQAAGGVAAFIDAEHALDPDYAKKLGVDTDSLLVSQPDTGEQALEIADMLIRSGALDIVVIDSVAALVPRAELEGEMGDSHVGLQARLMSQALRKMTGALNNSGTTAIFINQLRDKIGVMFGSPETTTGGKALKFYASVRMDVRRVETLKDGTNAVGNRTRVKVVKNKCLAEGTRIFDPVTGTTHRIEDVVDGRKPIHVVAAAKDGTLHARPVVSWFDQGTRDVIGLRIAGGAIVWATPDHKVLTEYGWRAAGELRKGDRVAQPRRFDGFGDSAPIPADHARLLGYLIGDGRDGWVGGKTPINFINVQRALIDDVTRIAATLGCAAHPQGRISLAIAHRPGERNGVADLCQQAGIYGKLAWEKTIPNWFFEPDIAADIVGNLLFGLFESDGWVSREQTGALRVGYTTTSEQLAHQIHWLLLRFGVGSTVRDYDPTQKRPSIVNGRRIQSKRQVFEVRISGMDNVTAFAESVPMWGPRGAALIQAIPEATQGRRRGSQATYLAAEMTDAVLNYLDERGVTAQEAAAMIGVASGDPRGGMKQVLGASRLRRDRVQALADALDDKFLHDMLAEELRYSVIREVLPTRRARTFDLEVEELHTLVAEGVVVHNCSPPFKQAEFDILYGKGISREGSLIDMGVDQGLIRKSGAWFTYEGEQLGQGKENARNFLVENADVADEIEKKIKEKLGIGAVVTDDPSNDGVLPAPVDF

[24] = system: MDCK; assay: antiviral activity against H1N1 influenza, dose response, cell-based, strain KY136 (AID 540257); type: functional; details: Canis lupus familiaris
[25] = molecular target: Nonstructural protein 1 (Influenza A virus, UniProt Q194T2); type: functional, Influenza A virus (A/California/07/2009(H1N1))

Cytochrome P450 2C19, sequence (P33261 whole entry): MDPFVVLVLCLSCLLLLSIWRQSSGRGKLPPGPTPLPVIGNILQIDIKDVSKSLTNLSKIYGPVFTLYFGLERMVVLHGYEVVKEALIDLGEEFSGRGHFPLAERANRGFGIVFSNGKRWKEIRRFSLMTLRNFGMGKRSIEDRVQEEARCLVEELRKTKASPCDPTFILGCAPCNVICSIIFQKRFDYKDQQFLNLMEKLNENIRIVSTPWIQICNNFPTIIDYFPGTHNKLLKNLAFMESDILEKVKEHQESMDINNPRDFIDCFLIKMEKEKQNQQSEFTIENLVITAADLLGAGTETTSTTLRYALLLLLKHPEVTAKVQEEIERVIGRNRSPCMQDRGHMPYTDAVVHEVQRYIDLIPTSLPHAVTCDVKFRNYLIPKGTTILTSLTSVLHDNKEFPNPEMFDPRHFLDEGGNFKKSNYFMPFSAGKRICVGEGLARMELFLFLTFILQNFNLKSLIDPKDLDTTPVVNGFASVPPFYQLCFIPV
Cytochrome P450 2C9, sequence (P11712 whole entry): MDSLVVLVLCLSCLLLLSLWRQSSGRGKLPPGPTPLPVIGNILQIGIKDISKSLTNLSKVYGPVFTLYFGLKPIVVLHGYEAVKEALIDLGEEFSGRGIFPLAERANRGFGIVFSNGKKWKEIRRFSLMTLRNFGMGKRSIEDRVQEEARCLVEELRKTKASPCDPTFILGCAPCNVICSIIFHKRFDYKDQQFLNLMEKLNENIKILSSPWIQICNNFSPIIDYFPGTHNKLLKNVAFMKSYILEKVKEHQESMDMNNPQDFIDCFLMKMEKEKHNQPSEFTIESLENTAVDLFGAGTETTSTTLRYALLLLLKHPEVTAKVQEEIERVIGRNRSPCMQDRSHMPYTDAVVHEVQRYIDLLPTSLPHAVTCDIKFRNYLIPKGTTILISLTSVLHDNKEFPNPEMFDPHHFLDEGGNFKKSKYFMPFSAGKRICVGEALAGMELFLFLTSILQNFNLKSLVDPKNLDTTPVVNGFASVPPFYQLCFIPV
ATP-dependent molecular chaperone HSP82, sequence (C4YTQ8 whole entry): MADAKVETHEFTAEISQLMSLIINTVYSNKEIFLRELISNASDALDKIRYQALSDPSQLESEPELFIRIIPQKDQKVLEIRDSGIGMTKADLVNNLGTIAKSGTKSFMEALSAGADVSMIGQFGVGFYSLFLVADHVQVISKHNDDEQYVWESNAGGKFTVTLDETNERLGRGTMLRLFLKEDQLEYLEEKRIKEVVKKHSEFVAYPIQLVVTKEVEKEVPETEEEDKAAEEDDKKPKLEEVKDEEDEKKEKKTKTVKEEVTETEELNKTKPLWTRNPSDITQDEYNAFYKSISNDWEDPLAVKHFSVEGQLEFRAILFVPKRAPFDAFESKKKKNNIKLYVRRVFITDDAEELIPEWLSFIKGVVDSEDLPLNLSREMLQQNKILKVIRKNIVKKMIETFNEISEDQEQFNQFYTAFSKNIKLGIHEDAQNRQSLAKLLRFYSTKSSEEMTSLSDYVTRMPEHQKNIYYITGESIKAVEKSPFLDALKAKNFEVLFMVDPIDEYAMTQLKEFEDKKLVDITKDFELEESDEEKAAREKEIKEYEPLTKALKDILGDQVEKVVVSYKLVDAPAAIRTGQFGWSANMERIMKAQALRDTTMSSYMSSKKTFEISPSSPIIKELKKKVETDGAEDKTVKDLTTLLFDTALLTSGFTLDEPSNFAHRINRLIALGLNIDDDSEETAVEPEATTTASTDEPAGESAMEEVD
5-hydroxytryptamine receptor 5A, sequence (P47898 whole entry): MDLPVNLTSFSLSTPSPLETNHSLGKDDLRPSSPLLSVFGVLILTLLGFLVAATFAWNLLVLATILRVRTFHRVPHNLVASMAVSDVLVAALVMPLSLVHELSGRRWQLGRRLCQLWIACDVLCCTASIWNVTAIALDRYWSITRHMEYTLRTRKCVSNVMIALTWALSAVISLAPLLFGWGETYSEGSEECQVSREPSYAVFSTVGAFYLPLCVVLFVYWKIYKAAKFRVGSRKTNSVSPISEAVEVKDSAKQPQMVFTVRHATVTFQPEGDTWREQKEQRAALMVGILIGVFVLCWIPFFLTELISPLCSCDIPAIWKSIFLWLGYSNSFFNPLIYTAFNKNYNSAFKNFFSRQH
Mu-type opioid receptor, sequence (P35372 whole entry): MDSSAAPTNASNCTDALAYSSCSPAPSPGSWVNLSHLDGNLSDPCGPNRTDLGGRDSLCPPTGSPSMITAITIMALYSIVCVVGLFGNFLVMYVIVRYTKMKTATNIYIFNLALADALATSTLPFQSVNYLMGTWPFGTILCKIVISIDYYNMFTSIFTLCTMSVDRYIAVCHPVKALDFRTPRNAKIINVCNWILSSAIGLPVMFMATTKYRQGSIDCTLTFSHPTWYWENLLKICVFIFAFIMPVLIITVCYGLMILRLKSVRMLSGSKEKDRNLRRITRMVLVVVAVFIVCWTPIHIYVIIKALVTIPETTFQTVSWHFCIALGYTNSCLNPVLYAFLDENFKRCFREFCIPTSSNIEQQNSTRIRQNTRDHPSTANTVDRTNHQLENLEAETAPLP
Delta-type opioid receptor, sequence (P41143 whole entry): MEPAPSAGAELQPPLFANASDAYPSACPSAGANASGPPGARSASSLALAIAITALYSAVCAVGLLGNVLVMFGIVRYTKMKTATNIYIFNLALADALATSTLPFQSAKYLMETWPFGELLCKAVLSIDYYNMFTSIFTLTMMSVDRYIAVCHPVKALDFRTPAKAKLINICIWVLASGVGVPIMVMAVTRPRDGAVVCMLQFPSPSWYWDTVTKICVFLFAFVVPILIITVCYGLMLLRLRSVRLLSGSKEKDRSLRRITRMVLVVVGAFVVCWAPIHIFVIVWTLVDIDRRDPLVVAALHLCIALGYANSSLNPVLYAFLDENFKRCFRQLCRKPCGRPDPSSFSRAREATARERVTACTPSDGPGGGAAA
Dual specificity protein phosphatase 3, sequence (P51452 whole entry): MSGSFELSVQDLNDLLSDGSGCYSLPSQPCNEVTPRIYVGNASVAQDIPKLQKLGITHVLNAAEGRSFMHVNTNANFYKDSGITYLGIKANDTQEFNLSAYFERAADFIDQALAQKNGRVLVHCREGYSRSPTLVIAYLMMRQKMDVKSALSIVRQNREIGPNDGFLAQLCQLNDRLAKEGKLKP
SWI/SNF-related matrix-associated actin-dependent regulator of chromatin subfamily A member 2, sequence (P51531 whole entry): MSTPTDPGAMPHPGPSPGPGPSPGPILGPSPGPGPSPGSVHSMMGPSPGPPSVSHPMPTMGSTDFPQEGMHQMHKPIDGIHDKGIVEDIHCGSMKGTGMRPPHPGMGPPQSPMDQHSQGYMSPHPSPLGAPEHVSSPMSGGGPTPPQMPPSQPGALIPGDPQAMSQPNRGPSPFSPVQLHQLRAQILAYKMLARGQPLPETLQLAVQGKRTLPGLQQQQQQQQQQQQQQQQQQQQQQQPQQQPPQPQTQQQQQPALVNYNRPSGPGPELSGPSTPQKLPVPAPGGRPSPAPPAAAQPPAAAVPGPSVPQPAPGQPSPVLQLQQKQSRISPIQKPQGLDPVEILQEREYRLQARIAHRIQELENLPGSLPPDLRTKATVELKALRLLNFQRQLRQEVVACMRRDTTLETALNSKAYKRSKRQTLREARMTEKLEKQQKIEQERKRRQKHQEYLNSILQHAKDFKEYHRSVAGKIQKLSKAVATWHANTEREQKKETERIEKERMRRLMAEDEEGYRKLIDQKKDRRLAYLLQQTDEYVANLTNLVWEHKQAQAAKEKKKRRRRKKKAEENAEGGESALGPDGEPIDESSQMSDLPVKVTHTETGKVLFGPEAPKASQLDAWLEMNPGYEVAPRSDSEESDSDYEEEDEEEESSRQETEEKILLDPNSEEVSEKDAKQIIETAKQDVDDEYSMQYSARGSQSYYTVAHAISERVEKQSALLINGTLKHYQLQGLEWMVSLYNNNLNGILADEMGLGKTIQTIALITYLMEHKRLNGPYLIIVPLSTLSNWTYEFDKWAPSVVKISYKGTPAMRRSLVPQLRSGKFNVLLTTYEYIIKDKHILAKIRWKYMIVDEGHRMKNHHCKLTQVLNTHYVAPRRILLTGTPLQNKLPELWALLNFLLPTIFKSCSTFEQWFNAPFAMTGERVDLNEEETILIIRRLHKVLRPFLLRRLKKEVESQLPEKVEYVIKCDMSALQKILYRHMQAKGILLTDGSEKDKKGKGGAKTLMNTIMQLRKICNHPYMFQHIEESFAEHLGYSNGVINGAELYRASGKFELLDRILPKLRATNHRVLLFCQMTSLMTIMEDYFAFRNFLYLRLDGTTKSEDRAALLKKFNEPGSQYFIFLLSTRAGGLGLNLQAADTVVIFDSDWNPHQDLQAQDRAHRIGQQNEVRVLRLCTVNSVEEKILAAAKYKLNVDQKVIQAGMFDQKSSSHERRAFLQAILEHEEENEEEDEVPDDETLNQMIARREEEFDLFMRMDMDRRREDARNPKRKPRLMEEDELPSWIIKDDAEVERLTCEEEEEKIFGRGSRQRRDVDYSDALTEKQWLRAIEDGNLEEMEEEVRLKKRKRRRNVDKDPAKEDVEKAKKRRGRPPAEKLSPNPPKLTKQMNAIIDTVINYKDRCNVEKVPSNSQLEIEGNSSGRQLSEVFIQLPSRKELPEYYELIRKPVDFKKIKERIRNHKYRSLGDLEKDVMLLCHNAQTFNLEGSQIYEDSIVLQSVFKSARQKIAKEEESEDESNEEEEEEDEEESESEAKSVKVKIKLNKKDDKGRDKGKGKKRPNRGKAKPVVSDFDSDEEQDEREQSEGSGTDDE
Photoreceptor-specific nuclear receptor, sequence (Q9Y5X4 whole entry, the tested form may be a part): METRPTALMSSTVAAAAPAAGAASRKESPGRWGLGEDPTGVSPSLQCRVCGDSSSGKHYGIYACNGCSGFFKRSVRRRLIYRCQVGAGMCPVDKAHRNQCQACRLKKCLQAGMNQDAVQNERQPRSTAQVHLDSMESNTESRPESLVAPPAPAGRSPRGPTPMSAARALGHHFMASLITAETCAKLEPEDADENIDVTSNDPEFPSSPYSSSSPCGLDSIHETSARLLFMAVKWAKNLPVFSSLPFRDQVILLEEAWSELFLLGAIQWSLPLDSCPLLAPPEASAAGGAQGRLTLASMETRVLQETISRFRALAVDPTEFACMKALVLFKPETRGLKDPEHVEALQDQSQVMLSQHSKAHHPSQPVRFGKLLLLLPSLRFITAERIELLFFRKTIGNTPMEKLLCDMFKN

Cn1c(SCC(=O)Nc2ccc3nc(SCC(=O)c4ccc(Cl)cc4)sc3c2)nnc1-c1ccc(N)cc1
IC50 [1]: 40.6 µM (active)

Cc1ccc(-n2cc(CNC(C)c3cnn(C)c3C)c(-c3ccc(F)cc3)n2)cc1 (stereo not given)
EC50 [2]: 13 µM (inactive)
EC50 [3]: 50 µM (inactive)
EC50 [4]: 0.376 µM (active)
EC50 [5]: > 0.1268 µM
EC50 [6]: > 92.5 µM (inactive)

COc1ccc2c(c1)/C(=C/c1cnc[nH]1)C(=O)N2 [SU-9516]
EC50 [7]: > 160 µM (inactive)
EC50 [8]: > 160 µM (inactive)
EC50 [9]: > 350 µM (not active)
EC50 [10]: 0.956 µM (active)
AC50 [11]: 34.2 µM (active)
EC50 [12]: > 91.2 µM (inactive)
EC50 [13]: > 180 µM (inactive)
IC50 [14]: 71.8 µM (inactive)
EC50 [15]: > 350 µM (not active)
EC50 [16]: > 91.2 µM (inactive)
AC50 [17]: 0.995 µM (active)
IC50 [18]: 1.19 µM (active)

CC1(C)c2ssc(=S)c2-c2ccccc2N1C(=O)CSC1=NCCS1
AC50 [19]: 2.82 µM (inconclusive)
AC50 [20]: 2 µM (inconclusive)
AC50 [21]: 0.891 µM (inconclusive)
AC50 [22]: 5.8 µM (active)
EC50 [23]: 4.27 µM (active)
IC50 [24]: > 100 µM (active)
IC50 [25]: 27.7 µM (active)
